Results reported in patent US6689813B2 (Biostatin Gyogyszerkutato-Fejleszto kft., priority 1998, dated 2004).
Where no end group is shown, it is not given here. [ ]: non-standard residue; d: D form.

Test system: Wistar rats
Assay: 1% mustard oil-induced neurogenic inflammation (Evans blue plasma extravasation, foot skin)
Assay type: in vivo, rat
Procedure: Thirty minutes after acute bilateral denervation of the lower limbs (transsection of the saphenous and sciatic nerves), 50 mg/kg of Evans blue dye was administered to the tail vein of nembutal-anaesthetized (pentobarbital, 40 mg/kg i.p.) Wistar rats (150-220 g body weight; 5 to 7 animals in each group). […] The mustard oil induces a so-called neurogenic inflammation by the selective stimulation of the peripheral endings of CSPAN's and by releasing the mediators being present therein (chiefly tachykinins and CGRP); this neurogenic inflammation appears as a vasodilatation in the area of arterioles and in the form of a plasma extravasation at the venular side. Since the dye Evans blue is bound to serum albumin in the vascular bed, its precipitation and accumulation in the upper skin surface of foot are proportional to the extent of plasma extravasation. Thus, the quantitative determination of intensity of the inflammation becomes possible. After the painting with mustard oil, the animals were bled, the foot dorsum skins were cut out and their weights were determined. The amount of dye extracted during 72 hours of incubation in formamide was determined at 620 nm on a spectrophotometer (Spectromon 195). The amount (expressed as μg) of the extravasated Evans blue related to one g of wet tissue was calculated by means of the following formula:
Evans blue (μg/g)=E×V×k/m
E is the light absorption of the solution, V means the volume (ml) of the solution, m is the weight […] of the skin cut out from the foot dorsum skin; and k is a constant determined on the basis of a dilution series, which is characteristic of the dye solution.

## D-Phe-Cys-Tyr-D-Trp-Lys-Cys-Thr-NH2 ([dF]CY[dW]KCT-NH2; cysteine pairing not given here) [TT-232]
20 μg/kg i.p., 1% mustard oil
  Decrease % (Evans blue extravasation vs control): 63.616%
20 μg/kg i.p., 1% mustard oil on feet, control 169.525
  Evans blue extravasation: 61.68 µg/g
20 μg/kg, 20 minutes after i.p. administration
  inhibition of mustard oil-induced neurogenic inflammation (in words): significantly inhibited
dose/effect relation, FIG. 2
  equipotent dose ratio vs somatostatin (times lower dose): ~8 times
  highest antiinflammatory effect relative to highest effect of somatostatin: double
Intravenous dose of 2.5 μg/kg, 2 hours after administration (FIG. 2.a)
  inhibition of inflammation: 35%
